In patent publication US8039586B1, “Cerebral organic anion transporter and its gene” (J-Pharma Co., Ltd., priority 1998, dated 2011):
Like-named read-outs stand apart in the source and are kept apart here.

Assays:
Format in all cases: cell-based
rat OAT3 (rk1411) [1] = target: T1, rat OAT3 (rk1411) (Rattus norvegicus, UniProt Q9R1U7); assay: Inhibition of 3H-estrone sulfate uptake in oocyte injected with rk1411 cRNA
T1 construct: cRNA (RNA complementary to cDNA) was prepared in vitro from the plasmid carrying the clone (rk1411); expressed in transfected cells; host or cells: Xenopus oocytes injected with rk1411 cRNA
T1 sequence (Q9R1U7 1-536): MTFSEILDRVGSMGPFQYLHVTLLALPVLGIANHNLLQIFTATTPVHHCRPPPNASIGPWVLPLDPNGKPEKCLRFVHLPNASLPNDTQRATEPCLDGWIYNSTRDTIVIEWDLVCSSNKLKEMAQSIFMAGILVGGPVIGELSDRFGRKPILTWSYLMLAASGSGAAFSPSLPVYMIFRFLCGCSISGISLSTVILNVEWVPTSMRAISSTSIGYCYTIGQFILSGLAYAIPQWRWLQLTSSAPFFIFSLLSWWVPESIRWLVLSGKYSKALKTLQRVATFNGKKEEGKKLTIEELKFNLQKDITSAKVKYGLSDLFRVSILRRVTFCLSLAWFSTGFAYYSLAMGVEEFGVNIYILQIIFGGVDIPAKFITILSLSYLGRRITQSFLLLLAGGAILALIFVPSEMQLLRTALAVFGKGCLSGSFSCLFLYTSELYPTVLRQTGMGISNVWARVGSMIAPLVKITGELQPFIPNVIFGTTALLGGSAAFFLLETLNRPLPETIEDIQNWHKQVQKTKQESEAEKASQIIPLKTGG

hOAT3 [2] = target: T2, hOAT3 (Homo sapiens, UniProt Q8TCC7, D366H/K271E); assay: Inhibition of 3H-estrone sulfate uptake in oocyte injected with hOAT3 cRNA; design: cRNA (RNA complementary to cDNA) was prepared in vitro from the plasmid comprising the hOAT3 recovered above; expressed in transfected cells; host or cells: Xenopus oocytes injected with hOAT3 cRNA; conditions: 50 nM 3H-estrone sulfate; non-radiolabeled compound at 500 μM or the concentration shown in FIG. 19; one hour
T2 sequence (Q8TCC7 1-542 K271E/D366H): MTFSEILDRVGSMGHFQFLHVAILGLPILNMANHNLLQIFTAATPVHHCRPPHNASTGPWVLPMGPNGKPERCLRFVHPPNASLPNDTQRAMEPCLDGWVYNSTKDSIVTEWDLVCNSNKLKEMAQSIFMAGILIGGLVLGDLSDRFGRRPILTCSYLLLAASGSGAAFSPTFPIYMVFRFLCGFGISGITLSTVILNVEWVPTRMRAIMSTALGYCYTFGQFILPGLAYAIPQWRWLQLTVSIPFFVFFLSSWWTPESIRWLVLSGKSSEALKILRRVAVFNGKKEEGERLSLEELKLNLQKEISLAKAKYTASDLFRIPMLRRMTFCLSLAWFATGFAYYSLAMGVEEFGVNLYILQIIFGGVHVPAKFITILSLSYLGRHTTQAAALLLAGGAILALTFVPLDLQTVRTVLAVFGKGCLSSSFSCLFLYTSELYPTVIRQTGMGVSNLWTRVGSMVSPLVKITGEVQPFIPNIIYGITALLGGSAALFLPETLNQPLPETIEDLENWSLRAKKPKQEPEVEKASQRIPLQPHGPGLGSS

hOAT3 [3] = target: T3, hOAT3 (Homo sapiens, UniProt Q8TCC7); assay: Uptake of radiolabeled compounds by Xenopus oocyte injected with hOAT3 cRNA
T3 construct: cRNA (RNA complementary to cDNA) was prepared in vitro from the plasmid comprising the hOAT3 recovered above; expressed in transfected cells; host or cells: Xenopus oocytes injected with hOAT3 cRNA
T3 sequence (Q8TCC7 1-542 K271E/D366H): T2 sequence (Q8TCC7 1-542 K271E/D366H)
Experimental: By using T7 RNA polymerase, cRNA (RNA complementary to cDNA) was prepared in vitro from the plasmid comprising the hOAT3 recovered above by the method by Sekine, et al. (see Sekine, T., et al. J. Biol. Chem., Vol. 272, pp. 18526-9, 1997).
According to the already reported method of Sekine, et al. (Sekine, T., et al. J. Biol. Chem., Vol. 272, pp. 18526-9, 1997), the resulting hOAT3 cRNA was injected in the Xenopus oocyte; the oocyte was subjected to an uptake test with various radiolabeled organic anions and organic cations. The control oocyte cell (oocyte cell with no injection of hOAT3 cRNA) and the oocyte cell injected with hOAT3 cRNA were cultured in a buffer containing the following radiolabels for one hour, to assay the uptake of the radiolabels into the oocytes.
In each figure, open column expresses the case of the control oocyte used; and closed column expresses the case of the oocyte injected with hOAT3 cRNA.

rat OAT3 (rk1411) [4] = target: T1, rat OAT3 (rk1411); assay: Uptake of radiolabeled organic anions and cations by Xenopus oocyte expressing rk1411 (rat OAT3); conditions: Xenopus oocyte injected with rk1411 cRNA; FIG. 1
rat OAT3 (rk1411) [5] = target: T1, rat OAT3 (rk1411); assay: Michaelis-Menten dynamic test of organic anion transport with rk1411 in oocyte
From the text: The organic anion transport with rk1411 was subjected to the Michaelis-Menten dynamic test.

[6] = substrate: Nc1ccc(C(=O)NCC(=O)O)cc1; assay: as above; conditions: other: transport by rk1411 (rat OAT3) in Xenopus oocyte; FIG. 2
[7] = 1 mM unlabeled compound, Xenopus oocyte, FIG. 3
[8] = substrate 10 μM, one hour, versus control oocyte
[9] = substrate 50 nM, one hour, versus control oocyte
[10] = transport by rk1411 (rat OAT3) in Xenopus oocyte
[11] = substrate 100 nM, one hour, versus control oocyte

Molecule: CC1(C)S[C@@H]2[C@H](NC(=O)Cc3ccccc3)C(=O)N2[C@H]1C(=O)O [benzylpenicillin]
- inhibition of 3H-estrone sulfate transport with rk1411 (rat OAT3 (rk1411) [1]; [7]): significantly inhibited
- inhibition of the transport of 3H-estrone sulfate with hOAT3 (hOAT3 [2]): significantly inhibited

Molecule: O=C1OC(c2ccc(O)c(S(=O)(=O)O)c2)(c2ccc(O)c(S(=O)(=O)O)c2)c2c(Br)c(Br)c(Br)c(Br)c21 [bromosulfophthalein]
- inhibition of 3H-estrone sulfate transport with rk1411 (rat OAT3 (rk1411) [1]; [7]): significantly inhibited
- inhibition of the transport of 3H-estrone sulfate with hOAT3 (hOAT3 [2]): significantly inhibited

Molecule: CN/C(=N/CCSCc1nc[nH]c1C)NC#N [cimetidine]
- uptake of radiolabeled compound by oocyte with hOAT3 expression (hOAT3 [3]; substrate 150 nM, one hour, versus control oocyte): takes up

Molecule: O=C(O)c1ccccc1O [salicylic acid]
- uptake of radiolabeled compound by oocyte with hOAT3 expression (hOAT3 [3]; substrate 1 μM, one hour, versus control oocyte): takes up

Molecule: O=C(O)CCCC(=O)O [glutaric acid]
- uptake of radiolabeled compound by oocyte with hOAT3 expression (hOAT3 [3]; [8]): takes up
- inhibition of the transport of 3H-estrone sulfate with hOAT3 (hOAT3 [2]): significantly inhibited

Molecule: dehydroepiandrosterone sulfate
- uptake of radiolabeled compound by oocyte with hOAT3 expression (hOAT3 [3]; [9]): takes up

Molecule: CC[N+](CC)(CC)CC [TEA, tetraethylammonium]
- uptake of radiolabeled compound by oocyte with hOAT3 expression (hOAT3 [3]): never transported
- inhibition of the transport of 3H-estrone sulfate with hOAT3 (hOAT3 [2]): never exerted any inhibitory action

Molecule: CN1C(C(=O)Nc2ccccn2)=C(O)c2ccccc2S1(=O)=O [pyroxicam]
- inhibition of 3H-estrone sulfate transport with rk1411 (rat OAT3 (rk1411) [1]; [7]): significantly inhibited

Molecule: CCCCNc1cc(C(=O)O)cc(S(N)(=O)=O)c1Oc1ccccc1 [bumetanide]
- inhibition of 3H-estrone sulfate transport with rk1411 (rat OAT3 (rk1411) [1]; [7]): significantly inhibited

Molecule: C[C@H](CCC(=O)O)[C@H]1CC[C@H]2[C@@H]3[C@H](O)C[C@@H]4C[C@H](O)CC[C@]4(C)[C@H]3C[C@H](O)[C@]12C [cholic acid]
- inhibition of 3H-estrone sulfate transport with rk1411 (rat OAT3 (rk1411) [1]; [7]): significantly inhibited
- uptake of radiolabeled compound by oocyte with hOAT3 expression (hOAT3 [3]; [8]): takes up

Molecule: C[C@@H]1Cc2c(Cl)cc(C(=O)N[C@@H](Cc3ccccc3)C(=O)O)c(O)c2C(=O)O1 [ochratoxin A]
- uptake of radiolabeled compound by oocyte in which rk1411 was expressed (rat OAT3 (rk1411) [4]): could take up
- Vmax (rat OAT3 (rk1411) [5]; [10]): 8.08 ± 0.33 pmol/hr/oocyte
- Km (rat OAT3 (rk1411) [5]; transport by rk1411 (rat OAT3) in Xenopus oocyte, FIG. 2, listed as Ochratoxin A, read-out: Km): 0.739 ± 0.178 µM
- Km (rat OAT3 (rk1411) [5]; transport by rk1411 (rat OAT3) in Xenopus oocyte, FIG. 2, read-out: Km): 0.74 µM
- uptake of radiolabeled compound by oocyte with hOAT3 expression (hOAT3 [3]; [11]): takes up

Molecule: CC1(C)C(/C=C/C=C/C=C/C=C2\N(CCCCS(=O)(=O)O)c3ccc4ccccc4c3C2(C)C)=[N+](CCCCS(=O)(=O)[O-])c2ccc3ccccc3c21 [indocyanine green]
- inhibition of 3H-estrone sulfate transport with rk1411 (rat OAT3 (rk1411) [1]; [7]): significantly inhibited

Molecule: CN(Cc1cnc2nc(N)nc(N)c2n1)c1ccc(C(=O)N[C@@H](CCC(=O)O)C(=O)O)cc1 [methotrexate]
- uptake of radiolabeled compound by oocyte with hOAT3 expression (hOAT3 [3]; [11]): takes up
- inhibition of the transport of 3H-estrone sulfate with hOAT3 (hOAT3 [2]): significantly inhibited

Molecule: COc1ccc2c(c1)c(CC(=O)O)c(C)n2C(=O)c1ccc(Cl)cc1 [indomethacin]
- uptake of radiolabeled compound by oocyte with hOAT3 expression (hOAT3 [3]; [8]): takes up
- inhibition of the transport of 3H-estrone sulfate with hOAT3 (hOAT3 [2]): significantly inhibited

Molecule: CCCN(CCC)S(=O)(=O)c1ccc(C(=O)O)cc1 [probenecid]
- inhibition of 3H-estrone sulfate transport with rk1411 (rat OAT3 (rk1411) [1]; [7]): significantly inhibited
- inhibition of the transport of 3H-estrone sulfate with hOAT3 (hOAT3 [2]): significantly inhibited

Molecule: CCCCC[C@H](O)/C=C/[C@H]1[C@H](O)CC(=O)[C@@H]1C/C=C\CCCC(=O)O [prostaglandin E2]
- uptake of radiolabeled compound by oocyte with hOAT3 expression (hOAT3 [3]; substrate 1 nM, one hour, versus control oocyte): takes up

Molecule: Nc1ccc(C(=O)NCC(=O)O)cc1 [PAH, p-aminohippuric acid]
- uptake of radiolabeled compound by oocyte in which rk1411 was expressed (rat OAT3 (rk1411) [4]): could take up
- Km (rat OAT3 (rk1411) [5]): 64.7 ± 10 µM
- Vmax (rat OAT3 (rk1411) [5]; [10]): 23.3 ± 2.8 pmol/hr/oocyte
- uptake of radiolabeled compound by oocyte with hOAT3 expression (hOAT3 [3]; [8]): takes up
- inhibition of the transport of 3H-estrone sulfate with hOAT3 (hOAT3 [2]): significantly inhibited

Molecule: C[C@]12CC[C@@H]3c4ccc(O)cc4CC[C@H]3[C@@H]1CC[C@@H]2O[C@@H]1O[C@H](C(=O)O)[C@@H](O)[C@H](O)[C@H]1O [estradiol glucuronide]
- uptake of radiolabeled compound by oocyte with hOAT3 expression (hOAT3 [3]; [9]): takes up

Molecule: N=C(N)N [guanidine]
- inhibition of 3H-estrone sulfate transport with rk1411 (rat OAT3 (rk1411) [1]; [7]): never exerted any such inhibitory action

Molecule: C[C@H](CCC(=O)NCCS(=O)(=O)O)[C@H]1CC[C@H]2[C@@H]3[C@H](O)C[C@@H]4C[C@H](O)CC[C@]4(C)[C@H]3C[C@H](O)[C@]12C [taurocholic acid]
- inhibition of 3H-estrone sulfate transport with rk1411 (rat OAT3 (rk1411) [1]): significantly inhibited
- uptake of radiolabeled compound by oocyte with hOAT3 expression (hOAT3 [3]; [8]): takes up
- inhibition of the transport of 3H-estrone sulfate with hOAT3 (hOAT3 [2]): significantly inhibited

Molecule: COc1ccc(CCN(C)CCCC(C#N)(c2ccc(OC)c(OC)c2)C(C)C)cc1OC (stereo not shown) [berapamil]
- inhibition of 3H-estrone sulfate transport with rk1411 (rat OAT3 (rk1411) [1]; [7]): never exerted any such inhibitory action

B1: rat OAT3 (rk1411) (Rattus norvegicus) (protein)
chain: T1 sequence (Q9R1U7 1-536)
notes: cRNA (RNA complementary to cDNA) was prepared in vitro from the plasmid carrying the clone (rk1411); expressed in transfected cells; host or cells: Xenopus oocytes injected with rk1411 cRNA
- Km [6]: 4.7 µM
